Assay results taken from the NIST ThermoML archive (doi:10.1021/acs.jced.5b00385).
Numbers after ± are expanded uncertainties.

Conditions: Liquid, Vibrating tube method

CCOC(=O)CCC(=O)OCC [diethyl butanedioate]
Conditions	mass density [kg/m3]
283.56 K, 100010 kPa	1102.48 ± 1.3
283.57 K, 100 kPa	1049.61 ± 1.1
283.57 K, 1000 kPa	1050.21 ± 1.1
283.57 K, 3000 kPa	1051.56 ± 1.1
283.57 K, 5000 kPa	1052.88 ± 1.1
283.57 K, 10000 kPa	1056.11 ± 1.1
283.57 K, 15000 kPa	1059.25 ± 1.1
283.57 K, 30000 kPa	1068.16 ± 1.1
283.57 K, 40000 kPa	1073.71 ± 1.1
283.57 K, 50000 kPa	1079 ± 1.2
283.57 K, 60000 kPa	1084.1 ± 1.2
283.57 K, 70000 kPa	1089.01 ± 1.2
283.57 K, 80000 kPa	1093.63 ± 1.2
283.57 K, 90010 kPa	1098.12 ± 1.3
283.58 K, 20000 kPa	1062.29 ± 1.1
283.58 K, 25000 kPa	1065.25 ± 1.1
293.49 K, 100 kPa	1039.78 ± 1.1
293.49 K, 20000 kPa	1053.11 ± 1.1
293.49 K, 25000 kPa	1056.23 ± 1.1
293.49 K, 40000 kPa	1065.07 ± 1.1
293.49 K, 60000 kPa	1075.9 ± 1.2
293.5 K, 1000 kPa	1040.41 ± 1.1
293.5 K, 3000 kPa	1041.81 ± 1.1
293.5 K, 5000 kPa	1043.2 ± 1.1
293.5 K, 10000 kPa	1046.6 ± 1.1
293.5 K, 15000 kPa	1049.91 ± 1.1
293.5 K, 30000 kPa	1059.25 ± 1.1
293.5 K, 50000 kPa	1070.61 ± 1.1
293.5 K, 70000 kPa	1080.89 ± 1.2
293.5 K, 80000 kPa	1085.77 ± 1.2
293.51 K, 90000 kPa	1090.39 ± 1.2
293.51 K, 100000 kPa	1094.9 ± 1.3
303.42 K, 100 kPa	1028.98 ± 1.1
303.42 K, 1000 kPa	1029.62 ± 1.1
303.42 K, 20000 kPa	1042.98 ± 1.1
303.42 K, 25000 kPa	1046.26 ± 1.1
303.42 K, 60000 kPa	1066.78 ± 1.1
303.42 K, 70000 kPa	1072.05 ± 1.2
303.42 K, 80000 kPa	1077.09 ± 1.2
303.43 K, 3000 kPa	1031.12 ± 1.1
303.43 K, 5000 kPa	1032.59 ± 1.1
303.43 K, 15000 kPa	1039.61 ± 1.1
303.43 K, 30000 kPa	1049.4 ± 1.1
303.43 K, 40000 kPa	1055.5 ± 1.1
303.43 K, 50000 kPa	1061.26 ± 1.1
303.43 K, 90000 kPa	1081.92 ± 1.2
303.43 K, 100000 kPa	1086.58 ± 1.3
303.44 K, 10000 kPa	1036.15 ± 1.1
313.31 K, 15000 kPa	1030.05 ± 1.1
313.31 K, 50000 kPa	1052.81 ± 1.1
313.32 K, 5000 kPa	1022.61 ± 1.1
313.32 K, 10000 kPa	1026.44 ± 1.1
313.32 K, 30000 kPa	1040.39 ± 1.1
313.32 K, 40000 kPa	1046.78 ± 1.1
313.33 K, 100 kPa	1018.75 ± 1
313.33 K, 1000 kPa	1019.44 ± 1
313.33 K, 3000 kPa	1021.07 ± 1.1
313.33 K, 20000 kPa	1033.63 ± 1.1
313.33 K, 25000 kPa	1037.06 ± 1.1
313.33 K, 60000 kPa	1058.52 ± 1.1
313.33 K, 70000 kPa	1064.01 ± 1.2
313.33 K, 80000 kPa	1069.21 ± 1.2
313.33 K, 90000 kPa	1074.2 ± 1.2
313.33 K, 100000 kPa	1078.99 ± 1.2
323.18 K, 100 kPa	1008.44 ± 1
323.18 K, 1000 kPa	1009.19 ± 1
323.18 K, 3000 kPa	1010.86 ± 1
323.18 K, 10000 kPa	1016.52 ± 1
323.18 K, 15000 kPa	1020.37 ± 1.1
323.18 K, 20000 kPa	1024.08 ± 1.1
323.18 K, 25000 kPa	1027.7 ± 1.1
323.19 K, 5000 kPa	1012.5 ± 1
323.19 K, 30000 kPa	1031.17 ± 1.1
323.19 K, 40000 kPa	1037.8 ± 1.1
323.19 K, 50000 kPa	1044.06 ± 1.1
323.19 K, 60000 kPa	1050.01 ± 1.1
323.19 K, 70000 kPa	1055.67 ± 1.1
323.19 K, 80000 kPa	1061.06 ± 1.2
323.19 K, 90000 kPa	1066.22 ± 1.2
323.19 K, 100000 kPa	1071.19 ± 1.2
333.1 K, 100 kPa	998.31 ± 1
333.1 K, 1000 kPa	999.11 ± 1
333.1 K, 3000 kPa	1000.91 ± 1
333.1 K, 5000 kPa	1002.64 ± 1
333.11 K, 10000 kPa	1006.85 ± 1
333.11 K, 15000 kPa	1010.94 ± 1
333.11 K, 20000 kPa	1014.85 ± 1
333.11 K, 25000 kPa	1018.62 ± 1.1
333.11 K, 30000 kPa	1022.27 ± 1.1
333.11 K, 40000 kPa	1029.2 ± 1.1
333.11 K, 50000 kPa	1035.72 ± 1.1
333.11 K, 60000 kPa	1041.91 ± 1.1
333.11 K, 70000 kPa	1047.69 ± 1.1
333.11 K, 80000 kPa	1053.26 ± 1.1
333.11 K, 90000 kPa	1058.57 ± 1.2
333.11 K, 100000 kPa	1063.7 ± 1.2
342.97 K, 100 kPa	987.87 ± 1
342.97 K, 15000 kPa	1001.22 ± 1
342.97 K, 20000 kPa	1005.3 ± 1
342.97 K, 30000 kPa	1013.07 ± 1
342.97 K, 40000 kPa	1020.32 ± 1.1
342.97 K, 50000 kPa	1027.1 ± 1.1
342.97 K, 70000 kPa	1039.64 ± 1.1
342.97 K, 90000 kPa	1050.91 ± 1.2
342.97 K, 100000 kPa	1056.19 ± 1.2
342.98 K, 1000 kPa	988.73 ± 1
342.98 K, 3000 kPa	990.63 ± 1
342.98 K, 5000 kPa	992.45 ± 1
342.98 K, 10000 kPa	996.91 ± 1
342.98 K, 25000 kPa	1009.24 ± 1
342.98 K, 60000 kPa	1033.53 ± 1.1
342.98 K, 80000 kPa	1045.43 ± 1.1
352.82 K, 100 kPa	977.64 ± 1
352.82 K, 1000 kPa	978.58 ± 1
352.82 K, 3000 kPa	980.59 ± 1
352.82 K, 5000 kPa	982.53 ± 1
352.82 K, 10000 kPa	987.26 ± 1
352.82 K, 15000 kPa	991.79 ± 1
352.83 K, 20000 kPa	996.08 ± 1
352.83 K, 25000 kPa	1000.24 ± 1
352.83 K, 30000 kPa	1004.25 ± 1
352.83 K, 40000 kPa	1011.8 ± 1
352.83 K, 50000 kPa	1018.87 ± 1.1
352.83 K, 60000 kPa	1025.54 ± 1.1
352.83 K, 70000 kPa	1031.82 ± 1.1
352.83 K, 80000 kPa	1037.81 ± 1.1
352.83 K, 90000 kPa	1043.47 ± 1.1
352.83 K, 100010 kPa	1048.95 ± 1.2
362.66 K, 100 kPa	967.3 ± 0.99
362.66 K, 1000 kPa	968.28 ± 0.99
362.66 K, 3000 kPa	970.41 ± 0.99
362.66 K, 60000 kPa	1017.41 ± 1.1
362.67 K, 5000 kPa	972.48 ± 1
362.67 K, 10000 kPa	977.45 ± 1
362.67 K, 15000 kPa	982.21 ± 1
362.67 K, 20000 kPa	986.74 ± 1
362.67 K, 25000 kPa	991.07 ± 1
362.67 K, 30000 kPa	995.26 ± 1
362.67 K, 40000 kPa	1003.16 ± 1
362.67 K, 50000 kPa	1010.5 ± 1.1
362.67 K, 70000 kPa	1023.98 ± 1.1
362.67 K, 80000 kPa	1030.14 ± 1.1
362.67 K, 90000 kPa	1036.01 ± 1.1
362.67 K, 100000 kPa	1041.65 ± 1.2
